Data: the Biogen ADME set (Fang et al. 2023)
≈ marks a conversion by molar mass, not a printed value.

Conditions: for aqueous solubility: pH 6.8

| SMILES | MDR1-MDCK efflux ratio | intrinsic clearance, human liver microsomes | intrinsic clearance, rat liver microsomes | aqueous solubility | fraction unbound, rat plasma | fraction unbound, human plasma |
| --- | --- | --- | --- | --- | --- | --- |
| Cc1nc(-c2ccccc2)nc(O)c1C | 0.634 | 19.3 mL/min/kg | 54.3 mL/min/kg |  |  |  |
| Cc1cc(Nc2nc(N[C@@H](C)c3ncc(F)cn3)ncc2Cl)n[nH]1 | 10.5 | 8.47 mL/min/kg | 46.3 mL/min/kg |  |  |  |
| CC1(C)CN(C(=O)C2(C(=O)N3CC(C)(C)C3(C)C)CCC2)C1(C)C | 2.4 | 304 mL/min/kg | 1210 mL/min/kg | 75 µg/mL (≈ 224 µM) |  |  |
| COC(c1ccccc1)(c1ccccc1)[C@H](Oc1nc(C)cc(C)n1)C(=O)O | 38.3 | ≤ 4.74 mL/min/kg | ≤ 10.7 mL/min/kg |  |  |  |
| Cc1nc(CN2C(=O)CN(C3CCCC3)C2=O)nc2ccccc12 | 1.54 | ≤ 4.74 mL/min/kg | 823 mL/min/kg | 43 µg/mL (≈ 132 µM) |  |  |
| COCCc1ccc(OCC(O)CNC(C)C)cc1 (centres undefined) |  |  |  |  | 1 |  |
| CC(C)NC(=O)N1CC[C@H](NC2=Nc3cc(F)ccc3N(CC(F)F)c3ccc(Cl)cc32)C1 | 23.6 | 180 mL/min/kg | 783 mL/min/kg | 28 µg/mL (≈ 58.3 µM) |  |  |
| Cc1ccc(Nc2ccnc(Nc3ccc(C)cc3)n2)cc1 | 0.2 | 85.2 mL/min/kg | 477 mL/min/kg |  |  |  |
| CN(C)CCN(Cc1ccccc1)C(=O)CCC(=O)Nc1ncc(-c2ccccc2)n1C | 38.2 | 92 mL/min/kg | 279 mL/min/kg | 59.1 µg/mL (≈ 136 µM) |  |  |
| CC1(C)Oc2ccc(Cl)cc2[C@@H]2O[C@@H]3CCNC[C@@H]3C[C@H]21 | 11.3 | ≤ 4.74 mL/min/kg | 103 mL/min/kg | 42.5 µg/mL (≈ 138 µM) |  |  |
| CN1C(=O)[C@@H](NC(=O)c2nnc(Cc3ccccc3)[nH]2)COc2ccccc21 |  | ≤ 4.74 mL/min/kg | 104 mL/min/kg | 41.5 µg/mL (≈ 110 µM) |  |  |
| CC1(CNC(=O)c2cncc(C3CCNCC3)n2)CCCO1 (centres undefined) |  | ≤ 4.74 mL/min/kg | 21.3 mL/min/kg |  | 0.912 | 0.974 |
| COc1ncccc1CNc1ncnc2c1cnn2C | 0.967 | ≤ 4.74 mL/min/kg | 28.8 mL/min/kg | 46.6 µg/mL (≈ 172 µM) |  |  |
| CN(CC(=O)Nc1cccc(S(=O)(=O)N2CCCC2)c1)C1CCCCC1 | 2.29 | 601 mL/min/kg | 2980 mL/min/kg |  |  |  |
| Cc1cc(OCc2ncc(C(C)(C)C)o2)nn1C | 0.716 | 27.8 mL/min/kg | 655 mL/min/kg | 18.5 µg/mL (≈ 74.2 µM) |  |  |
| Cc1noc(OCC(=O)N2CCCCCC2)n1 | 1.01 | ≤ 4.74 mL/min/kg | ≤ 10.7 mL/min/kg | 50.2 µg/mL (≈ 210 µM) |  |  |
| CC(C)(C)c1ccc(=O)n(CC2CN(CC3(O)CCCC3)C2)n1 | 18.8 | 6.33 mL/min/kg | 110 mL/min/kg | 45.8 µg/mL (≈ 143 µM) |  |  |
| Cc1nc(Cl)cc(Nc2cnn(C(C)(C)C)c2)n1 | 0.684 | ≤ 4.74 mL/min/kg | 21.4 mL/min/kg | 22.6 µg/mL (≈ 85 µM) |  |  |
| CC(=O)N1CCCN(Cc2ccc(C(=O)N3CCCC3)cc2)c2ccccc21 |  | 227 mL/min/kg | 327 mL/min/kg |  |  |  |
| Cc1ccc(Cl)c(OC[C@@]2(O)CN(C3CCC3)CC[C@@H]2O)c1 | 0.695 | 166 mL/min/kg | 2290 mL/min/kg |  |  |  |
| Cc1c(CN2CCC(Nc3ncnc4sc(CC(F)(F)F)cc34)CC2)ccc2c1cc(C#N)n2Cc1cn[nH]c1 | 14.1 | 136 mL/min/kg | 105 mL/min/kg | 3.23 µg/mL (≈ 5.72 µM) |  |  |
| O=C(CCN1C(=O)CCC1=O)Nc1cccc2ncccc12 | 11.3 | ≤ 4.74 mL/min/kg | ≤ 10.7 mL/min/kg | 45.2 µg/mL (≈ 152 µM) |  |  |
| O=C(CN1CCCC(c2cccc(Cc3cccc(F)c3)n2)C1)N1CCCC1 (centres undefined) |  | 76.2 mL/min/kg | 1140 mL/min/kg |  | 0.0899 | 0.115 |
| CON(C)C(=O)c1cccc2c(C)c(C)[nH]c12 | 0.476 | 113 mL/min/kg | 196 mL/min/kg | 31.5 µg/mL (≈ 136 µM) |  |  |
| CC(=O)Nc1ccc(C(=O)N2CCCCC2c2nc(N)ncc2-c2cccc(Cl)c2)cc1 (centres undefined) | 98 | 53.3 mL/min/kg | 651 mL/min/kg | 57.5 µg/mL (≈ 128 µM) | 0.0384 | 0.0331 |
| CN(CCC1CCCCC1)C(=O)c1ccon1 | 0.597 | 40.4 mL/min/kg | 972 mL/min/kg | 69.9 µg/mL (≈ 296 µM) |  |  |
| CO[C@H]1COCCN(C(=O)c2cccnc2)C1 | 1.2 | ≤ 4.74 mL/min/kg | ≤ 10.7 mL/min/kg | 34.8 µg/mL (≈ 147 µM) |  |  |

| SMILES | MDR1-MDCK efflux ratio | intrinsic clearance, human liver microsomes | intrinsic clearance, rat liver microsomes | aqueous solubility | fraction unbound, rat plasma | fraction unbound, human plasma |
| --- | --- | --- | --- | --- | --- | --- |
| Cc1ccc(-n2nc(C(=O)N3CC(O)C3)c3c2CCCC3)cc1 | 5.67 | 53.3 mL/min/kg | 182 mL/min/kg | 36.5 µg/mL (≈ 117 µM) |  |  |
| OCCCCCn1cc(-c2ccccc2-c2ccco2)nn1 | 1.08 | 34 mL/min/kg | 235 mL/min/kg | 11.1 µg/mL (≈ 37.3 µM) |  |  |
| CN1CCN(C(=O)c2cc(Br)cnc2Cl)c2cnccc21 | 4.54 | 9.09 mL/min/kg | 90.8 mL/min/kg | 57.8 µg/mL (≈ 157 µM) |  |  |
| Cn1cc(NC(=O)c2ccccc2C(F)(F)F)cn1 | 0.828 | ≤ 4.74 mL/min/kg | ≤ 10.7 mL/min/kg | 37.7 µg/mL (≈ 140 µM) |  |  |
| CSCCc1nc(-c2cc(C)nc3cc(F)ccc23)n(CCO)n1 | 21.8 | 16.9 mL/min/kg | 147 mL/min/kg | 24 µg/mL (≈ 69.4 µM) |  |  |
| COC[C@@H](O)Cn1c(C)nc2ccccc21 | 1.43 | ≤ 4.74 mL/min/kg | ≤ 10.7 mL/min/kg |  |  |  |
| COc1ccc(-c2ccccc2)c(NS(=O)(=O)c2cc(O)c(Cl)cc2Cl)c1 |  |  |  | 27.6 µg/mL (≈ 65 µM) |  |  |
| Cc1cnc(C(C)(C)NCC(=O)N(C)C)s1 | 1.86 | ≤ 4.74 mL/min/kg | 20.9 mL/min/kg |  |  |  |
| COc1ccc(C(=O)c2ccccc2)c(Oc2nc3c(c(=O)n(C)c(=O)n3C)n2C)c1 | 1.83 | 21.5 mL/min/kg | 1510 mL/min/kg | 49.3 µg/mL (≈ 117 µM) |  |  |
| CNC(=O)CC1CCN(c2ncccn2)CC1 | 0.823 | ≤ 4.74 mL/min/kg | ≤ 10.7 mL/min/kg | 50 µg/mL (≈ 213 µM) |  |  |
| N#CN1CCC[C@H](n2nc(-c3ccc(Oc4ccc(F)cc4F)cc3)c(C(N)=O)c2N)C1 | 33 | ≤ 4.74 mL/min/kg | 68.2 mL/min/kg | 35.9 µg/mL (≈ 81.9 µM) |  |  |
| CCc1cc(N2CCOCC2)nc(C2CCN(C(=O)C3CC3)CC2)n1 | 4.76 | 11.6 mL/min/kg | 278 mL/min/kg |  |  |  |
| CCN(CC#N)C(=O)c1nn(-c2ccc(F)cc2)c2c1CCCC2 | 0.712 | 50.2 mL/min/kg | 397 mL/min/kg | 40.5 µg/mL (≈ 124 µM) |  |  |
| Cc1nc(NC(c2nccn2C)C2CC2)c2sccc2n1 (centres undefined) | 13.9 | 43.7 mL/min/kg | 319 mL/min/kg | 51.3 µg/mL (≈ 171 µM) |  |  |
| CC1(c2ccn[nH]2)CCN(Cc2ccco2)CC1 | 0.904 | ≤ 4.74 mL/min/kg | 76.4 mL/min/kg | 21 µg/mL (≈ 85.5 µM) |  |  |
| COc1cc([C@@H]2c3cc4c(cc3[C@H](O)[C@H]3COC(=O)[C@@H]23)OCO4)cc(OC)c1OC | 0.444 | 44.5 mL/min/kg | 5860 mL/min/kg |  |  |  |
| Cc1nccn1-c1ccc(F)cc1CNC(=O)C(C)C | 22.2 | 8.38 mL/min/kg | 57.2 mL/min/kg | 59.4 µg/mL (≈ 216 µM) |  |  |
| CC(=O)Nc1ccccc1CN1CCC(c2nnc3ccccn23)CC1 | 49.3 | 10 mL/min/kg | 114 mL/min/kg |  |  |  |
| Cc1cc(C)n2ncc(C(=O)N[C@H]3CC[C@@H](C(C)C)CC3)c2n1 | 0.775 |  |  |  |  |  |
| CC(=O)NCCNc1cc(Cl)nn2c(-c3cccc(S(=O)(=O)N(C)C)c3)c(C)nc12 | 67.7 | 228 mL/min/kg | 797 mL/min/kg | 45.8 µg/mL (≈ 102 µM) |  | 0.048 |
| CN1CCC(NS(=O)(=O)C2CN(C(=O)c3cccc(Cl)c3)C2)CC1 | 28.4 | 4.94 mL/min/kg | ≤ 10.7 mL/min/kg | 56.8 µg/mL (≈ 153 µM) |  |  |
| CN(Cc1c(F)cccc1Cl)C(=O)C1(C#N)CCCC1 |  | 111 mL/min/kg | 1250 mL/min/kg | 35.2 µg/mL (≈ 120 µM) |  |  |
| O=S(=O)(NC[C@H]1CCCN1)c1ccc(OC(F)F)cc1 | 2.89 | ≤ 4.74 mL/min/kg | 34.5 mL/min/kg |  |  |  |
| O=C(O)c1ccccc1-c1ccc(CN2CCCCC2)cc1 | 4.17 | ≤ 4.74 mL/min/kg | 54.3 mL/min/kg | 91.9 µg/mL (≈ 311 µM) |  |  |
| CCOC(=O)N1CCC(Nc2nc3ccccc3s2)CC1 | 0.812 | 8.22 mL/min/kg | 294 mL/min/kg | 49.2 µg/mL (≈ 161 µM) |  |  |
| Cc1cnn(CC2CC2)c1NC(=O)/C=C/c1ccccc1 | 2.67 | 13.8 mL/min/kg | 318 mL/min/kg | 32.7 µg/mL (≈ 116 µM) |  |  |
| CCCCn1nc(-c2ccc(C)o2)nc1CNC | 1.32 | 14.3 mL/min/kg | 239 mL/min/kg | 29.3 µg/mL (≈ 118 µM) |  |  |
